Values after ≈ are worked out from the molar mass of the structure shown. Active and inactive are the calls of the source. No cut-off for these calls is given here.
Key:
Pseudomonas aeruginosa [1] = assay: Synergistic antimicrobial activity against Pseudomonas aeruginosa assessed as fold enhancement in erythromycin potency at 0.5 uM incubated for overnight by CLSI method; type: functional
Pseudomonas aeruginosa [2] = assay: Antimicrobial activity against Pseudomonas aeruginosa assessed as inhibition of bacterial growth incubated for overnight by CLSI method; type: functional
Escherichia coli [3] = assay: Antimicrobial activity against Escherichia coli DH5alpha assessed as inhibition of bacterial growth incubated for overnight by CLSI method; type: functional; settings: DH5[alpha]
Pseudomonas aeruginosa [4] = assay: Synergistic antimicrobial activity against Pseudomonas aeruginosa assessed as fold enhancement in erythromycin potency at 1 uM incubated for overnight by CLSI method; type: functional
Escherichia coli [5] = assay: Antimicrobial activity against Escherichia coli K-12 assessed as inhibition of bacterial growth incubated for overnight by CLSI method; type: functional
[6] = Synergistic antimicrobial activity against Escherichia coli DH5alpha assessed as fold enhancement in erythromycin potency at 75 uM incubated for overnight by CLSI method; type: functional, K-12
Escherichia coli [7] = assay: Synergistic antimicrobial activity against Escherichia coli DH5alpha assessed as fold enhancement in tetracycline potency at 150 uM incubated for overnight by CLSI method; type: functional, DH5[alpha]
Escherichia coli [8] = assay: Synergistic antimicrobial activity against Escherichia coli DH5alpha assessed as fold enhancement in erythromycin potency at 150 uM incubated for overnight by CLSI method; type: functional, DH5[alpha]
Escherichia coli [9] = assay: Synergistic antimicrobial activity against Escherichia coli K-12 assessed as enhancement in rifampicin potency at 2.5 uM; type: functional, organism-based
Escherichia coli [10] = assay: Synergistic antimicrobial activity against Escherichia coli DH5alpha assessed as fold enhancement in rifampicin potency at 75 uM incubated for overnight by CLSI method; type: functional, DH5[alpha]
Escherichia coli [11] = assay: Synergistic antimicrobial activity against Escherichia coli DH5alpha assessed as fold enhancement in tetracycline potency at 75 uM incubated for overnight by CLSI method; type: functional, DH5[alpha]
Escherichia coli [12] = assay: Synergistic antimicrobial activity against Escherichia coli DH5alpha assessed as fold enhancement in rifampicin potency at 150 uM incubated for overnight by CLSI method; type: functional, DH5[alpha]
Escherichia coli [13] = assay: Synergistic antimicrobial activity against Escherichia coli DH5alpha assessed as fold enhancement in kanamycin potency at 75 uM incubated for overnight by CLSI method; type: functional, DH5[alpha]
Escherichia coli [14] = assay: Synergistic antimicrobial activity against Escherichia coli DH5alpha assessed as fold enhancement in kanamycin potency at 150 uM incubated for overnight by CLSI method; type: functional, DH5[alpha]
Bacillus subtilis [15] = assay: Antimicrobial activity against Bacillus subtilis assessed as inhibition of bacterial growth incubated for overnight by CLSI method; type: functional
Escherichia coli [16] = assay: Growth inhibition of Escherichia coli DH5alpha at 50 uM measured every 15 mins for 12 hrs; type: functional, organism-based; settings: DH5[alpha]
Escherichia coli [17] = assay: Growth inhibition of Escherichia coli DH5alpha at 25 uM measured every 15 mins for 12 hrs; type: functional, organism-based; settings: DH5[alpha]
Escherichia coli [18] = assay: Growth inhibition of Escherichia coli DH5alpha at half MIC measured every 15 mins for 12 hrs; type: functional, organism-based; settings: DH5[alpha]
Escherichia coli [19] = assay: Synergistic antimicrobial activity against Escherichia coli K-12 assessed as fold enhancement in rifampicin potency at 0.6 uM incubated for overnight by CLSI method; type: functional
Bacillus subtilis [20] = assay: Synergistic antimicrobial activity against Bacillus subtilis assessed as fold enhancement in erythromycin potency at 0.12 uM incubated for overnight by CLSI method; type: functional
Pseudomonas aeruginosa [21] = assay: Synergistic antimicrobial activity against Pseudomonas aeruginosa assessed as fold enhancement in rifampicin potency at 0.5 uM incubated for overnight by CLSI method; type: functional
Escherichia coli [22] = assay: Synergistic antimicrobial activity against Escherichia coli K-12 assessed as fold enhancement in kanamycin potency at 0.6 uM incubated for overnight by CLSI method; type: functional, organism-based
Escherichia coli [23] = assay: Synergistic antimicrobial activity against Escherichia coli K-12 assessed as fold enhancement in erythromycin potency at 0.6 uM incubated for overnight by CLSI method; type: functional
Pseudomonas aeruginosa [24] = assay: Synergistic antimicrobial activity against Pseudomonas aeruginosa assessed as fold enhancement in rifampicin potency at 1 uM incubated for overnight by CLSI method; type: functional
Escherichia coli [25] = assay: Synergistic antimicrobial activity against Escherichia coli K-12 assessed as fold enhancement in kanamycin potency at 1.25 uM incubated for overnight by CLSI method; type: functional
Pseudomonas aeruginosa [26] = assay: Synergistic antimicrobial activity against Pseudomonas aeruginosa assessed as fold enhancement in tetracycline potency at 1 uM incubated for overnight by CLSI method; type: functional
Escherichia coli [27] = assay: Growth inhibition of Escherichia coli DH5alpha at half MIC measured every 15 mins for 12 hrs in presence of 25 uM erythromycin; type: functional, organism-based; settings: DH5[alpha]
Bacillus subtilis [28] = assay: Synergistic antimicrobial activity against Bacillus subtilis assessed as fold enhancement in tetracyclin potency at 0.12 uM incubated for overnight by CLSI method; type: functional
Escherichia coli [29] = assay: Synergistic antimicrobial activity against Escherichia coli K-12 assessed as fold enhancement in erythromycin potency at 1.25 uM incubated for overnight by CLSI method; type: functional
Escherichia coli [30] = assay: Synergistic antimicrobial activity against Escherichia coli K-12 assessed as fold enhancement in tetracycline potency at 1.25 uM incubated for overnight by CLSI method; type: functional
Escherichia coli [31] = assay: Synergistic antimicrobial activity against Escherichia coli K-12 assessed as fold enhancement in tetracycline potency at 0.6 uM incubated for overnight by CLSI method; type: functional
Pseudomonas aeruginosa [32] = assay: Synergistic antimicrobial activity against Pseudomonas aeruginosa assessed as fold enhancement in tetracycline potency at 0.5 uM incubated for overnight by CLSI method; type: functional
Escherichia coli [33] = assay: Synergistic antimicrobial activity against Escherichia coli K-12 assessed as fold enhancement in rifampicin potency at 1.25 uM incubated for overnight by CLSI method; type: functional

Compound: c1ccc(CN2CCOCCOCCN(CCCCCCCCCCCCCCCCN3CCOCCOCCN(CCCCCCCCCCCCCCCCN4CCOCCOCCN(Cc5ccccc5)CCOCCOCC4)CCOCCOCC3)CCOCCOCC2)cc1
- fold change (FC) (Pseudomonas aeruginosa [1]): 4
- MIC (Pseudomonas aeruginosa [2]): 2 µM (≈ 2.82 µg/mL)
- MIC (Escherichia coli [3]): 4 µM (≈ 5.65 µg/mL)
- fold change (FC) (Pseudomonas aeruginosa [4]): 8

Compound: CO[C@H]1/C=C/O[C@@]2(C)Oc3c(C)c(O)c4c(O)c(c(/C=N/N5CCN(C)CC5)c(O)c4c3C2=O)NC(=O)/C(C)=C\C=C\[C@H](C)[C@H](O)[C@@H](C)[C@@H](O)[C@@H](C)[C@H](OC(C)=O)[C@@H]1C [RIFAMPIN]
- MIC (Pseudomonas aeruginosa [2]): 25 µM (≈ 20.6 µg/mL)
- MIC (Escherichia coli [5]): 16 µM (≈ 13.2 µg/mL)
- MIC (Escherichia coli [3]): 55 µM (≈ 45.3 µg/mL)

Compound: c1ccc(CN2CCOCCOCCN(CCCCCCCCN3CCOCCOCCN(CCCCCCCCN4CCOCCOCCN(Cc5ccccc5)CCOCCOCC4)CCOCCOCC3)CCOCCOCC2)cc1
- fold change (FC) [6]: 8
- fold change (FC) (Escherichia coli [7]): 5
- fold change (FC) (Escherichia coli [8]): 13
- Activity (Escherichia coli [9]): inactive
- MIC (Escherichia coli [5]): 200 µM (≈ 238 µg/mL)
- fold change (FC) (Escherichia coli [10]): 18
- MIC (Escherichia coli [3]): 300 µM (≈ 356 µg/mL)
- fold change (FC) (Escherichia coli [11]): 2
- fold change (FC) (Escherichia coli [12]): 18
- fold change (FC) (Escherichia coli [13]): 2
- fold change (FC) (Escherichia coli [14]): 3

Compound: CN(C)[C@@H]1C(O)=C(C(N)=O)C(=O)[C@@]2(O)C(O)=C3C(=O)c4c(O)cccc4[C@@](C)(O)[C@H]3C[C@@H]12 [TETRACYCLINE]
- MIC (Pseudomonas aeruginosa [2]): 12 µM (≈ 5.33 µg/mL)
- MIC (Escherichia coli [5]): 5 µM (≈ 2.22 µg/mL)
- MIC (Escherichia coli [3]): 5 µM (≈ 2.22 µg/mL)
- MIC (Bacillus subtilis [15]): 3 µM (≈ 1.33 µg/mL)

Compound: CC[C@H]1OC(=O)[C@H](C)[C@@H](O[C@H]2C[C@@](C)(OC)[C@@H](O)[C@H](C)O2)[C@H](C)[C@@H](O[C@@H]2O[C@H](C)C[C@H](N(C)C)[C@H]2O)[C@](C)(O)C[C@@H](C)C(=O)[C@H](C)[C@@H](O)[C@]1(C)O [ERYTHROMYCIN]
- MIC (Pseudomonas aeruginosa [2]): 200 µM (≈ 147 µg/mL)
- MIC (Escherichia coli [5]): 700 µM (≈ 514 µg/mL)
- MIC (Escherichia coli [3]): 200 µM (≈ 147 µg/mL)
- growth inhibition (GI) (Escherichia coli [16]): Active
- growth inhibition (GI) (Escherichia coli [17]): inactive
- MIC (Bacillus subtilis [15]): 0.3 µM (≈ 0.22 µg/mL)

Compound: c1ccc(CN2CCOCCOCCN(CCCCCCCCCCCCCCN3CCOCCOCCN(CCCCCCCCCCCCCCN4CCOCCOCCN(Cc5ccccc5)CCOCCOCC4)CCOCCOCC3)CCOCCOCC2)cc1
- growth inhibition (GI) (Escherichia coli [18]): inactive
- fold change (FC) (Pseudomonas aeruginosa [1]): 4
- fold change (FC) (Escherichia coli [19]): 4
- fold change (FC) (Bacillus subtilis [20]): 2
- fold change (FC) (Pseudomonas aeruginosa [21]): 5
- fold change (FC) (Escherichia coli [22]): inactive
- fold change (FC) (Escherichia coli [23]): 2
- Activity (Escherichia coli [9]): Active
- fold change (FC) (Pseudomonas aeruginosa [24]): 11
- MIC (Pseudomonas aeruginosa [2]): 2 µM (≈ 2.71 µg/mL)
- MIC (Escherichia coli [5]): 2.5 µM (≈ 3.39 µg/mL)
- fold change (FC) (Escherichia coli [25]): 2
- fold change (FC) (Pseudomonas aeruginosa [26]): 4
- growth inhibition (GI) (Escherichia coli [27]): Active
- fold change (FC) (Bacillus subtilis [28]): 2
- MIC (Escherichia coli [3]): 2 µM (≈ 2.71 µg/mL)
- fold change (FC) (Escherichia coli [29]): 9
- fold change (FC) (Pseudomonas aeruginosa [4]): 8
- fold change (FC) (Escherichia coli [30]): 5
- fold change (FC) (Escherichia coli [31]): 2
- MIC (Bacillus subtilis [15]): 0.5 µM (≈ 0.678 µg/mL)
- fold change (FC) (Pseudomonas aeruginosa [32]): 2
- fold change (FC) (Escherichia coli [33]): 30

From ChEMBL document CHEMBL4680076, “Hydraphiles enhance antimicrobial potency against Escherichia coli, Pseudomonas aeruginosa, and Bacillus subtilis” (2016)
